Measured values taken from publication PMC3865603 (Cancer chemotherapy and pharmacology, 2011).

Experiments:
[1] = mice; cited from earlier work
plasma proteins = details: cited from earlier work
[2] = system: P-gp-overexpressing cell lines; details: cited from earlier work
[3] = system: advanced or metastatic solid tumors; assay: Anti-tumor activity; type: in vivo, human
[4] = system: patients with advanced solid tumors; assay: Phase I dose escalation: safety, DLT, MTD; type: in vivo, human; details: for Dyspnea, grade 3: listed as remotely related to study drug
[5] = Urinary excretion of KOS-1584 and metabolites; type: in vivo, human; details: MTD level, 0-24 h urine
[6] = system: paclitaxel-resistant xenografts; details: cited from earlier work
[7] = 0.8 mg/m^2 (n = 1), treatment-related
[8] = 1.5 mg/m^2 (n = 4), treatment-related
[9] = 2.5 mg/m^2 (n = 4), treatment-related
[10] = 3.7 mg/m^2 (n = 3), treatment-related
[11] = 5 mg/m^2 (n = 4), treatment-related
[12] = 6.5 mg/m^2 (n = 6), treatment-related
[13] = 8.5 mg/m^2 (n = 3), treatment-related
[14] = 11.3 mg/m^2 (n = 4), treatment-related
[15] = 15 mg/m^2 (n = 4), treatment-related
[16] = 20 mg/m^2 (n = 5), treatment-related
[17] = 27 mg/m^2 (n = 4), treatment-related
[18] = 36 mg/m^2 (n = 16), treatment-related
[19] = 42 mg/m^2 (n = 6), treatment-related
[20] = 48 mg/m^2 (n = 2), treatment-related

For C/C1=C/C[C@@H](/C(C)=C/c2csc(C)n2)OC(=O)C[C@H](O)C(C)(C)C(=O)[C@H](C)[C@@H](O)[C@@H](C)/C=C/C1 [KOS-1584, (E)-9,10-didehydroepothilone D], the “penetration of the BBB” value [1] is listed as “did penetrate the BBB”, the “bound to plasma proteins” value (plasma proteins) is listed as 97% and the “potency relative to paclitaxel” value [2] is listed as “more potent than paclitaxel”. For the same molecule, the “patients with durable SD of ≥3 months” value ([3]; 66 patients) was 13 patients, the “patients with objective partial response (PR)” value ([3]; 66 patients, 0.8-48 mg/m^2) was “Two” and the “disease control rate (CR + PR + SD)” value ([3]; all patients) was 39%. For the same molecule, the “Dyspnea, grade 3” value ([4]; 0.8 mg/m^2 (n = 1)) was 1 no. of patients, the “Anemia, grade 1/2” value [4, 7] was 1 no. of patients and the “Anorexia, grade 1/2” value [4, 7] was 1 no. of patients. For the same molecule, the “Asthenia/fatigue, grade 3” value [4, 7] was 1 no. of patients, the “Constipation, grade 1/2” value [4, 7] was 1 no. of patients and the “Diarrhea, grade 1/2” value [4, 7] was 1 no. of patients. For the same molecule, the “Nausea/vomiting, grade 1/2” value [4, 7] was 1 no. of patients, the “Anorexia, grade 1/2” value [4, 8] was 2 no. of patients and the “Arthralgia/myalgia, grade 1/2” value [4, 8] was 1 no. of patients. For the same molecule, the “Back pain, grade 1/2” value [4, 8] was 2 no. of patients, the “Diarrhea, grade 1/2” value [4, 8] was 2 no. of patients and the “Dyspnea, grade 1/2” value [4, 8] was 1 no. of patients. The “Lymphopenia, grade 1/2” value [4, 8] was 1 no. of patients, the “Nausea/vomiting, grade 1/2” value [4, 8] was 1 no. of patients and the “Peripheral neuropathy, grade 1/2” value [4, 8] was 2 no. of patients. For the same molecule, the “Pleural effusion, grade 1/2” value [4, 8] was 1 no. of patients, the “Abdominal pain, grade 1/2” value [4, 9] was 2 no. of patients and the “Anorexia, grade 1/2” value [4, 9] was 2 no. of patients. The “Asthenia/fatigue, grade 1/2” value [4, 9] was 4 no. of patients, the “Constipation, grade 1/2” value [4, 9] was 2 no. of patients and the “Diarrhea, grade 1/2” value [4, 9] was 2 no. of patients. The “Dry skin/rash, grade 1/2” value [4, 9] was 1 no. of patients, the “Nausea/vomiting, grade 1/2” value [4, 9] was 2 no. of patients and the “Peripheral neuropathy, grade 1/2” value [4, 9] was 1 no. of patients. For the same molecule, the “Abdominal pain, grade 1/2” value [4, 10] was 1 no. of patients, the “Anemia, grade 1/2” value [4, 10] was 1 no. of patients and the “Arthralgia/myalgia, grade 1/2” value [4, 10] was 1 no. of patients. The “Asthenia/fatigue, grade 1/2” value [4, 10] was 1 no. of patients, the “Diarrhea, grade 1/2” value [4, 10] was 2 no. of patients and the “Dizziness, grade 1/2” value [4, 10] was 1 no. of patients. For the same molecule, the “Nausea/vomiting, grade 1/2” value [4, 10] was 1 no. of patients, the “Peripheral neuropathy, grade 1/2” value [4, 10] was 1 no. of patients and the “Anorexia, grade 1/2” value [4, 11] was 1 no. of patients. The “Dizziness, grade 1/2” value [4, 11] was 1 no. of patients, the “Edema, grade 1/2” value [4, 11] was 1 no. of patients and the “Nausea/vomiting, grade 1/2” value [4, 11] was 1 no. of patients. For the same molecule, the “Dyspnea, grade 3” value ([4]; 6.5 mg/m^2 (n = 6)) was 1 no. of patients, the “Anemia, grade 1/2” value [4, 12] was 1 no. of patients and the “Asthenia/fatigue, grade 1/2” value [4, 12] was 2 no. of patients. For the same molecule, the “Diarrhea, grade 1/2” value [4, 12] was 1 no. of patients, the “Dizziness, grade 1/2” value [4, 12] was 2 no. of patients and the “Nausea/vomiting, grade 1/2” value [4, 12] was 1 no. of patients. For the same molecule, the “Pleural effusion, grade 1/2” value [4, 12] was 1 no. of patients, the “Asthenia/fatigue, grade 1/2” value [4, 13] was 1 no. of patients and the “Edema, grade 1/2” value [4, 13] was 1 no. of patients. For the same molecule, the “Peripheral neuropathy, grade 1/2” value [4, 13] was 1 no. of patients, the “Anorexia, grade 1/2” value [4, 14] was 1 no. of patients and the “Asthenia/fatigue, grade 1/2” value [4, 14] was 1 no. of patients. The “Asthenia/fatigue, grade 3” value [4, 14] was 1 no. of patients, the “Constipation, grade 1/2” value [4, 14] was 1 no. of patients and the “Headache, grade 1/2” value [4, 14] was 1 no. of patients. For the same molecule, the “Nausea/vomiting, grade 1/2” value [4, 14] was 1 no. of patients, the “Abdominal pain, grade 3” value [4, 15] was 1 no. of patients and the “Anemia, grade 1/2” value [4, 15] was 1 no. of patients. The “Asthenia/fatigue, grade 3” value [4, 15] was 1 no. of patients, the “Diarrhea, grade 1/2” value [4, 15] was 1 no. of patients and the “Edema, grade 1/2” value [4, 15] was 1 no. of patients. The “Nausea/vomiting, grade 1/2” value [4, 15] was 2 no. of patients, the “Peripheral neuropathy, grade 1/2” value [4, 15] was 1 no. of patients and the “Alopecia, grade 1/2” value [4, 16] was 1 no. of patients. For the same molecule, the “Anemia, grade 1/2” value [4, 16] was 1 no. of patients, the “Anorexia, grade 1/2” value [4, 16] was 1 no. of patients and the “Asthenia/fatigue, grade 1/2” value [4, 16] was 1 no. of patients. For the same molecule, the “Constipation, grade 1/2” value [4, 16] was 1 no. of patients, the “Diarrhea, grade 1/2” value [4, 16] was 1 no. of patients and the “Lymphopenia, grade 1/2” value [4, 16] was 1 no. of patients. For the same molecule, the “Nausea/vomiting, grade 1/2” value [4, 16] was 2 no. of patients, the “Peripheral neuropathy, grade 1/2” value [4, 16] was 2 no. of patients and the “Dyspnea, grade 3” value ([4]; 27 mg/m^2 (n = 4)) was 1 no. of patients. For the same molecule, the “Alopecia, grade 1/2” value [4, 17] was 1 no. of patients, the “Anemia, grade 1/2” value [4, 17] was 2 no. of patients and the “Anorexia, grade 1/2” value [4, 17] was 1 no. of patients. For the same molecule, the “Asthenia/fatigue, grade 1/2” value [4, 17] was 4 no. of patients, the “Back pain, grade 1/2” value [4, 17] was 1 no. of patients and the “Chest pain, grade 1/2” value [4, 17] was 1 no. of patients. For the same molecule, the “Constipation, grade 1/2” value [4, 17] was 1 no. of patients, the “Diarrhea, grade 1/2” value [4, 17] was 1 no. of patients and the “Dizziness, grade 1/2” value [4, 17] was 1 no. of patients. The “Dry skin/rash, grade 1/2” value [4, 17] was 1 no. of patients, the “Headache, grade 1/2” value [4, 17] was 3 no. of patients and the “Nausea/vomiting, grade 1/2” value [4, 17] was 1 no. of patients. For the same molecule, the “Peripheral neuropathy, grade 1/2” value [4, 17] was 4 no. of patients, the “incidence of diarrhea at RP2D, first figure” value ([4]; 36 mg/m^2) was 31% and the “incidence of diarrhea at RP2D, second figure” value ([4]; 36 mg/m^2) was 6%. The “Alopecia, grade 1/2” value [4, 18] was 4 no. of patients, the “Anemia, grade 1/2” value [4, 18] was 2 no. of patients and the “Anorexia, grade 1/2” value [4, 18] was 3 no. of patients. For the same molecule, the “Arthralgia/myalgia, grade 3” value [4, 18] was 1 no. of patients, the “Asthenia/fatigue, grade 3” value [4, 18] was 1 no. of patients and the “Back pain, grade 1/2” value [4, 18] was 1 no. of patients. The “Back pain, grade 3” value [4, 18] was 1 no. of patients, the “Chest pain, grade 1/2” value [4, 18] was 2 no. of patients and the “Chest pain, grade 3” value [4, 18] was 1 no. of patients. The “Constipation, grade 1/2” value [4, 18] was 1 no. of patients, the “Diarrhea, grade 1/2” value [4, 18] was 4 no. of patients and the “Diarrhea, grade 3” value [4, 18] was 1 no. of patients. The “Dry skin/rash, grade 1/2” value [4, 18] was 1 no. of patients, the “Edema, grade 1/2” value [4, 18] was 2 no. of patients and the “Headache, grade 1/2” value [4, 18] was 1 no. of patients. For the same molecule, the “Peripheral neuropathy, grade 1/2” value [4, 18] was 11 no. of patients, the “Thrombocytopenia, grade 1/2” value [4, 18] was 1 no. of patients and the “Abdominal pain, grade 3” value [4, 19] was 2 no. of patients. The “Alopecia, grade 1/2” value [4, 19] was 2 no. of patients, the “Anemia, grade 3” value [4, 19] was 1 no. of patients and the “Anorexia, grade 1/2” value [4, 19] was 2 no. of patients. For the same molecule, the “Asthenia/fatigue, grade 1/2” value [4, 19] was 3 no. of patients, the “Asthenia/fatigue, grade 3” value [4, 19] was 1 no. of patients and the “Constipation, grade 3” value [4, 19] was 1 no. of patients. For the same molecule, the “Diarrhea, grade 1/2” value [4, 19] was 3 no. of patients, the “Diarrhea, grade 3” value [4, 19] was 2 no. of patients and the “Dizziness, grade 1/2” value [4, 19] was 2 no. of patients. For the same molecule, the “Lymphopenia, grade 3” value [4, 19] was 1 no. of patients, the “Nausea/vomiting, grade 1/2” value [4, 19] was 3 no. of patients and the “Neutropenia, grade 3” value [4, 19] was 1 no. of patients. The “Peripheral neuropathy, grade 1/2” value [4, 19] was 4 no. of patients, the “Peripheral neuropathy, grade 3” value [4, 19] was 2 no. of patients and the “Thrombocytopenia, grade 1/2” value [4, 19] was 1 no. of patients. For the same molecule, the “Anorexia, grade 1/2” value [4, 20] was 1 no. of patients, the “Arthralgia/myalgia, grade 3” value [4, 20] was 1 no. of patients and the “Asthenia/fatigue, grade 1/2” value [4, 20] was 1 no. of patients. The “Back pain, grade 3” value [4, 20] was 1 no. of patients, the “Nausea/vomiting, grade 3” value [4, 20] was 1 no. of patients and the “Peripheral neuropathy, grade 3” value [4, 20] was 1 no. of patients. For the same molecule, the “frequency of all-grade peripheral neuropathy” value ([4]; RP2D 36 mg/m^2) was 69%, the “frequency of grade ≥3 peripheral neuropathy” value ([4]; RP2D 36 mg/m^2) was 0% and the “patients who discontinued therapy due to adverse effects” value ([4]; all cohorts) was “Five”. The “patients with positive FOBT or hematochezia” value ([4]; all cohorts) was “Five”, the myelosuppression ([4]; heavily pretreated patients) was “very low incidence of myelosuppression” and the “recommended phase II dose (RP2D)” value ([4]; iv every 3 weeks) was 36 mg/m^2. The “maximum tolerated dose (MTD)” value ([4]; iv over 3 h every 3 weeks) was 36 mg/m^2, the hypersensitivity reactions ([4]; no routine premedication) was “not associated with any hypersensitivity reactions” and the “Urinary excretion of unchanged KOS-1584” value [5] was < 10 % of drug-related materials. The anti-tumor activity [6] was “anti-tumor activity has been demonstrated”.
